Tests used:
[1] = target: T1, HOD (1-H-3-hydroxy-4-oxoquinaldine 2,4-dioxygenase) (Paenarthrobacter nitroguajacolicus, UniProt O31266, S101A); test: X-ray crystallography, normoxic and O2-pressurised (soak-and-freeze); assay type: binding; conditions: 2.0 Å; with water (normoxic) or O2 (40 bar, 2 min) at the R-site; active site
T1 construct: crystallised protein; construct, tags and host only in supplement

[2] = target: T2, HOD (1-H-3-hydroxy-4-oxoquinaldine 2,4-dioxygenase) (Paenarthrobacter nitroguajacolicus, UniProt O31266, H251A); test: as above; assay type: binding; conditions: 2.0 Å (normoxic) and 2.1 Å (hyperoxic, 40 bar O2, 2 min); active site, non-reactive substrate analogue
T2 construct: crystallised protein; construct, tags and host only in supplement

Which “X-ray crystallography, normoxic and O2-pressurised (soak-and-freeze)” value [1] does the source give for `Cc1cc(=O)c2ccccc2[nH]1` [MQO, 2-methyl-quinolin-4(1H)-one] here?
The value was “we then solved the structure of HOD^S101A in a complex with MQO”.

What about the “X-ray crystallography, normoxic and O2-pressurised (soak-and-freeze)” value [2] of the same compound?
The value was “MQO binds in the active site similarly to QND”.
